Reference: patent US20230190870A1, “Method for Treating Lysosomal Storage Diseases with Histatin Peptides” (THE BOARD OF TRUSTEES OF THE UNIVERSITY OF ILLINOIS, priority 2020, published 2023)
Entries after “also recorded” stand apart in the source; their conditions may differ. Square brackets hold non-standard residues; d marks the D form. Peptide text beside a SMILES is read from it. pS = N[C@@H](COP(=O)(O)O)C(=O)O

Experiments:
[1] = test system: Human corneal epithelial cells; test: Cell viability of BAK-treated human corneal epithelial cells; type: cell-based; details: benzalkonium chloride (BAK) treatment
Source text: Apoptosis. […] BAK and hOsm are standard inducers of corneal epithelial and neuronal cell death and toxicity, phenomena which are associated with ocular surface pain and chronic pain syndromes.

[2] = molecular target: T1, Synthetic TMEM97 (108-176) (Homo sapiens, UniProt Q5BJF2); test: Surface plasmon resonance, immobilized synthetic TMEM97 (108-176); type: binding; details: SPR
T1 construct: Three peptides, TMEM97 (108-176), TMEM97 (108-143) and TMEM97 (144-176), were synthesized; made in house; host or cells: chemical solid-phase synthesis (Fmoc, Wang resin)
T1 sequence (Q5BJF2 108-176): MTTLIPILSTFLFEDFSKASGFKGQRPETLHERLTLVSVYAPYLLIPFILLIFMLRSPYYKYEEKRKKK
Protocol: Surface Plasmon Resonance (SPR). Recombinant full-length TMEM97 (also called MAC30, from HEK293 cells) and GST-TMEM97 (108-176, recombinant GST-C terminal from wheat germ) proteins were purchased from OriGene (Rockville, Md.) and Abnova (Taipei City, Taiwan), respectively. Three peptides, TMEM97 (108-176), TMEM97 (108-143) and TMEM97 (144-176), were synthesized. All proteins and peptides were initially prepared in HBS buffer containing 10 mM HEPES, pH 7.4, 150 mM NaCl, and 0.05% surfactant P20. The CM5 sensor surface was first activated by 1-ethyl-3-(3-dimethylaminopropyl) carbodiimide hydrochloride (EDC)/N-hydroxy succinimide (NHS) mixture using a Biacore T200 or Biacore 8K instrument (GE Healthcare). […] Flow channels 1 and 3 were used as references.
The three synthesized peptides were diluted to 50 μg/mL in 10 mM sodium acetate at pH 4.0 and immobilized to flow channels 2, 3 and 4, respectively, on another sensor chip. The unmodified surfaces on a flow channel 1 were used as a reference control. Histatin solutions with a series of increasing concentrations (0.78-25 μM at 2-fold dilution) were applied to all four channels at a 30 μL/minute flow rate at 25° C. The data were double-referenced with reference channel and zero concentration responses, and reference subtracted sensorgrams were fitted with 1 to 1 Langmuir kinetic model using a Biacore T200 evaluation software V3.0 or Insight evaluation software. The equilibrium dissociation constants ([…]) were determined from two rate constants (KD=kd/ka).
To determine more precisely which segment of TMEM97 is necessary for binding of Hst1, multiple synthetic fragments of TMEM97 were generated (Table 6) and binding to Hst1 was tested using SPR. […] Smaller fragments of the C-terminal of TMEM97 were then constructed to represent the (predicted) luminal (108-143) and cytoplasmic (144-176) exposed segments of the C-terminus of TMEM97 based on modeling experiments previously described. […] SPR results for Hst1 were confirmed using ITC as an orthogonal analytical method.
To determine the region(s) of Hst1 that mediate binding to TMEM97, SPR testing was performed with various Hst1 fragments and either recombinant TMEM97 (GST-tagged, wheat-germ derived, C-terminal fragment TMEM97 (108-176)) or synthesized TMEM97 (TMEM97 (108-176), TMEM97 (108-143) and TMEM97 (144-176)).

[3] = test system: NPC1 (I1061T mutant) homozygous patient fibroblasts; test: Cellular calcium in NPC1 (I1061T mutant) patient fibroblasts; type: cell-based, human
HCE cells = test: Wound healing in vitro scratch assay; type: cell-based, human
Protocol: (§1) Transfection/Knock-Down of TMEM97. Sub-confluent monolayers of HCE cells in grown in 35-mm six-well plates were transfected with reaction mixtures composed of 100 pmol of small interfering RNA (siRNA) to TMEM97 (Santa Cruz Biotechnology; Dallas, Tex.) for 48 hours and 5 μL of transfection reagent sold under the tradename LIPOFECTAMINE® 2000 (Invitrogen; Carlsbad, Calif.) in culture medium sold under the tradename OPTI-MEMO media (Gibco Life Technologies; Grand Island, N.Y.). Complexes were incubated for 20 minutes at 24° C. and then added to cells at 37° C. Incubation was continued for 24 to 48 hours at 37° C. in 5% CO2. Knock-down (KD) of TMEM97 was confirmed by western blot analysis using a rabbit anti-TMEM97 antibody (Novus Bio.; Littleton, Colo.).
Wound Healing in vitro Scratch Assay. HCE cells were cultured in a 96-well plate at 5×10^4 (cells/well) seeding density, and were grown to confluence. Subsequently, a straight line scratch mark was made with a multiscratch wound maker (IncuCyte® 96-well WoundMaker Tool, Essen Biosciences; Ann Arbor, Mich.). The cells were then washed twice with PBS to remove cellular debris. […] The wound areas were measured using ImageJ software (ImageJ 1.47v, NIH, Thornwood; Bethesda, Md.). Relative wound closure was calculated by dividing the closure of the treated wound by that of the untreated control wound. […]

[4] = test system: human corneal epithelial (HCE) cells; test: Boyden chamber cell migration assay; type: cell-based
Protocol: as §1
Cell Migration Assay. HCE migration assays were performed in a 48-well micro-chemotaxis chamber (Neuro Probe, Inc.; Cabin John, Md.), following the manufacturer's instructions and following a modification of prior reports. Polyester membranes (Neuro Probe, Inc.; Gaithersburg, Md.) with 12 μm pores were used. Cells were incubated with Hst1 for 6 hours, harvested using Versene (Life Technologies, Corp.; Grand Island, N.Y.), resuspended in RPMI-1640 medium (Life Technologies, Corp.; Grand Island, N.Y.) containing 0.5% FBS. The bottom chamber was loaded with RPMI-1640 media containing 2% FBS, and the filter was laid over the media. […]

SMILES: CC(C)C[C@H](NC(=O)[C@H](Cc1ccc(O)cc1)NC(=O)[C@H](CC(N)=O)NC(=O)[C@H](CO)NC(=O)CNC(=O)[C@H](Cc1ccc(O)cc1)NC(=O)[C@H](CC(=O)O)NC(=O)CNC(=O)[C@H](Cc1ccc(O)cc1)NC(=O)[C@H](Cc1ccccc1)NC(=O)[C@@H]1CCCN1C(=O)[C@H](Cc1ccccc1)NC(=O)[C@H](CCC(=O)O)NC(=O)[C@H](CCCNC(=N)N)NC(=O)[C@H](Cc1c[nH]cn1)NC(=O)[C@H](CO)NC(=O)[C@H](Cc1c[nH]cn1)NC(=O)[C@H](Cc1c[nH]cn1)NC(=O)[C@H](CCCCN)NC(=O)[C@H](CCC(=O)O)NC(=O)[C@H](Cc1c[nH]cn1)NC(=O)[C@H](Cc1ccccc1)NC(=O)[C@H](CCCCN)NC(=O)[C@H](CCCNC(=N)N)NC(=O)[C@H](CCCNC(=N)N)NC(=O)[C@H](Cc1ccc(O)cc1)NC(=O)CNC(=O)[C@H](Cc1c[nH]cn1)NC(=O)[C@H](Cc1c[nH]cn1)NC(=O)[C@H](CCCNC(=N)N)NC(=O)[C@H](CCCCN)NC(=O)[C@H](CCC(=O)O)NC(=O)[C@H](Cc1c[nH]cn1)NC(=O)[C@H](COP(=O)(O)O)NC(=O)[C@@H](N)CC(=O)O)C(=O)N[C@@H](Cc1ccc(O)cc1)C(=O)N[C@@H](CC(=O)O)C(=O)N[C@@H](CC(N)=O)C(=O)O [Hst1] (H-D[pS]HEKRHHGYRRKFHEKHHSHREFPFYGDYGSNYLYDN-OH; N-terminus and C-terminus assumed)
- BAK-induced loss of cell viability [1]: abrogated
- % Rmax [2]: 38%
- Kd [2]: 2400 nM
- % Rmax ([2]; listed as Hst1(1-38)): (% Rmax = 23%)
- cellular calcium levels [3]: increased cellular calcium levels
- scratch closure / wound healing rate (HCE cells; 20 or 50 μM, 8 and 16 hours, versus untreated control): increases in wound healing rates; also recorded: statistically significant improvement in scratch closure rates
- wound closure response in TMEM97 KD cells (HCE cells; siRNA knock-down of TMEM97): abolished this responsiveness; also recorded: loss of this response
- transmigration response in TMEM97 KD cells ([4]; siRNA knock-down of TMEM97): inhibits; also recorded: abolished this response
- cellular transmigration ([4]; toward 2% FBS stimulus): dose-dependent increase in cellular transmigration
